Results on 1 compound are retold here after ChEMBL document CHEMBL1147033, “Novel selective androgen receptor modulators: SAR studies on 6-bisalkylamino-2-quinolinones” (Bioorg Med Chem Lett, 2007).

Some results are limits rather than exact numbers.

One may read the EC50 as the concentration needed to bring the measured effect to its halfway point. Read a low EC50 as a more potent agent. For orientation: IC50 means the concentration that inhibits the measured activity by half. The low end stands for greater potency, the high end for weaker potency. As usually defined, the Ki is the equilibrium dissociation constant of an inhibitor or competing ligand from its target. Higher therefore signals lower affinity.

Assay [1] concerns the target T1, Androgen receptor (Homo sapiens, UniProt P10275).
T1 sequence (P10275 whole entry): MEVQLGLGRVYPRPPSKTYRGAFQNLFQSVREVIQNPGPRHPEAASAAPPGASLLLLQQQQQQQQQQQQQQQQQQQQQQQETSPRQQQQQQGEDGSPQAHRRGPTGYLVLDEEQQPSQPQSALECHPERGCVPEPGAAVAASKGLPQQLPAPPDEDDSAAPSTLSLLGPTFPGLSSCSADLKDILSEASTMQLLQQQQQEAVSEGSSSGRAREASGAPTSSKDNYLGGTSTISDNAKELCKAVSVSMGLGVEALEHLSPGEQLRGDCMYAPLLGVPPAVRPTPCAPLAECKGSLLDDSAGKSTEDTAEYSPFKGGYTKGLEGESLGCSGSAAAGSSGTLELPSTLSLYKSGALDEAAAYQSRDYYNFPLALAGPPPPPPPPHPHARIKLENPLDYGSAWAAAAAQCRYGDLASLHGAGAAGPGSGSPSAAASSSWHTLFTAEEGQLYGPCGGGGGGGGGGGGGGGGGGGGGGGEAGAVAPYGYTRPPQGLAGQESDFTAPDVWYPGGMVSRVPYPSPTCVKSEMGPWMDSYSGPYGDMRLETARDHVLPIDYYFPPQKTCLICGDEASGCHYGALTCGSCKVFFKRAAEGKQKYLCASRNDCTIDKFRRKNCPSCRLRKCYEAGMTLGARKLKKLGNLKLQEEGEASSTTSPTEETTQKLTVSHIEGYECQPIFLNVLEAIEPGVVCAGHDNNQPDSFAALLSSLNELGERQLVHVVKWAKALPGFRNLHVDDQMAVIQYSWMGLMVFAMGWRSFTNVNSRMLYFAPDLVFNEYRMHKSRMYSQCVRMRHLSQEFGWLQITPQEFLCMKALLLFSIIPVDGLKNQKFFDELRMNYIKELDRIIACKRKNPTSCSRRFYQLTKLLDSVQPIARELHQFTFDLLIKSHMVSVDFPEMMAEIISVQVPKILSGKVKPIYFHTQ
Description: Agonist activity at human AR

For assay [2], the target named is T1, Androgen receptor. This is another data set of the same source.
Description: Antagonist activity at human AR
Assay [3] concerns the target T1, Androgen receptor. The source holds these as a separate data set.
Description: Binding affinity to human AR

Consider `O=c1cc(C(F)(F)F)c2cc(N(Cc3ccccc3)CC(F)(F)F)ccc2[nH]1`, for which, in assay [1], the EC50 is 27 nM. This compound came in with an IC50 in assay [2] greater than 10000 nM. Affinity in assay [3] was put at a Ki of 79 nM.
